Article PMC9481103 (2022)

Columns and labels:
Assay in all cases: in-line probing
Settings in all cases: 20 mM MgCl2, 100 mM KCl, 50 mM Tris-HCl pH 8.3, 28 °C, 42-48 h, apparent
[1] = system: aptamer 1 (c-di-GMP-I riboswitch aptamer, cluster 1) (RNA, riboswitch) GUCGUGAACAAGCCACACCCCGGGCGACCGGGGGCCGGAAAGCCGCGGGUCUCAGCAGAGACGGCCGGGUUGCCACCAGGC
[2] = system: aptamer 2 (c-di-GMP-I riboswitch aptamer, cluster 2) (RNA, riboswitch) GUCGUGAAGAAGCCACACCCCGGGCGACCGGGGGCCGGAAAGCCGCGGGUCUCAGCAGAGACGGCCGGGUUGCCACCAGAC
[3] = system: aptamer 3 (c-AMP-GMP riboswitch aptamer, cluster 3) (RNA, riboswitch) GCCGUGAAAAAACCACACCUCGGGCGACCGGGGGCCGGAAAGCCGCGGGUCUCAAAGGAGAUGGCCGGGUUGCCAGAAGGC

KD ([1]; Hill coefficient fixed at 1, micro sign lost in text layer ("34 M"))	KD ([2]; Hill coefficient fixed at 1, micro sign lost in text layer ("25 M"))	KD ([3]; Hill coefficient fixed at 1, micro sign lost in text layer ("1 M"))	KD ([1]; Hill coefficient fixed at 1)	KD ([2]; Hill coefficient fixed at 1)	KD ([3]; Hill coefficient fixed at 1)	Structure (SMILES)
~ 34 µM	~ 25 µM	~ 1 µM	–	–	–	Nc1nc2c(ncn2[C@@H]2O[C@@H]3COP(=O)(O)O[C@H]4[C@@H](O)[C@H](n5cnc6c(N)ncnc65)O[C@@H]4COP(=O)(O)O[C@H]3[C@H]2O)c(=O)[nH]1
–	–	–	~ 20 nM	~ 77 nM	~ 100 nM	Nc1nc2c(ncn2[C@@H]2O[C@@H]3COP(=O)(O)O[C@H]4[C@@H](O)[C@H](n5cnc6c(=O)[nH]c(N)nc65)O[C@@H]4COP(=O)(O)O[C@H]3[C@H]2O)c(=O)[nH]1
